Results taken from patent US9771369B2, “Compounds and methods for kinase modulation, and indications therefor” (Plexxikon Inc., priority 2014, dated 2017).

The compounds below were run against c-Kit kinase (Homo sapiens (Human), UniProt P10721) (assay: c-Kit biochemical assay (AlphaScreen kinase activity)).
c-Kit kinase, sequence (P10721 26-976): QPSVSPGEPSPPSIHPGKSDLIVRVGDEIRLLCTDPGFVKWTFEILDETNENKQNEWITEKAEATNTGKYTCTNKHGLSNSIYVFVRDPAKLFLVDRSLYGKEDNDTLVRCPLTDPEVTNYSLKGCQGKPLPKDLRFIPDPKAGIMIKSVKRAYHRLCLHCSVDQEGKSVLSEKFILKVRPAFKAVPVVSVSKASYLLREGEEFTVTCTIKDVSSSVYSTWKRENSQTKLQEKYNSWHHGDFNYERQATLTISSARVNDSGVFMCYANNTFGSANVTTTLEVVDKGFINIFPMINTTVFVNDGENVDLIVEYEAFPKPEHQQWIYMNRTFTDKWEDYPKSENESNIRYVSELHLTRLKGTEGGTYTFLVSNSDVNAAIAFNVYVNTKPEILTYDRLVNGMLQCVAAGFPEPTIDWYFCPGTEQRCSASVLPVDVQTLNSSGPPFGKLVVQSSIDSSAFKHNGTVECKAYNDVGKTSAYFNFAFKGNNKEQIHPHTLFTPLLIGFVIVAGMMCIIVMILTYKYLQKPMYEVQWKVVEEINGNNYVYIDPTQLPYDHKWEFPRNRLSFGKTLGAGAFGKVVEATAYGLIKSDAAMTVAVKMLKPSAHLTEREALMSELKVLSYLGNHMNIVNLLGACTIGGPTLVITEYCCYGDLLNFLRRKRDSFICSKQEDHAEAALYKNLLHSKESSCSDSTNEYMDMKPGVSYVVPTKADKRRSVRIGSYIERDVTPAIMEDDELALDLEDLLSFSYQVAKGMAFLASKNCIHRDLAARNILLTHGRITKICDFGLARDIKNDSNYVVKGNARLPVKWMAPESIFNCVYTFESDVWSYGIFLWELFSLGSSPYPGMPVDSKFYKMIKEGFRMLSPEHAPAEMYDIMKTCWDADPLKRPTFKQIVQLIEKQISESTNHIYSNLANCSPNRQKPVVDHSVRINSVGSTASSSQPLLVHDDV
Method in brief: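 AlphaScreen: c-Kit phosphorylates biotin-(E4Y)3 (100 nM) at 10 μM ATP, pH 7.2 HEPES buffer with Mg/Mn, 5% DMSO, 1 h room temperature; streptavidin donor and PY30 acceptor beads detect product. Second format: 100 μM ATP, 30 nM biotin-(E4Y)10, pH 7.5. IC50 from 8-point 1:3 dilution curves.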
With `COc1cc(-c2cc3c(N4CCC(c5nc(C)c(-c6ccc(OC(F)(F)F)cc6)[nH]5)CC4)ncnc3[nH]2)ccn1` [P-3087, 6-(2-methoxy-4-pyridyl)-4-[4-[4-methyl-5-[4-(trifluoromethoxy)phenyl]-1H-imidazol-2-yl]-1-piperidyl]-7H-pyrrolo[2,3-d]pyrimidine] the IC50 was 1 to 10 µM. In the case of `COc1cc(-c2cc3c(N4CCC(c5nc(C)c(-c6ccc(C)cc6)[nH]5)CC4)ncnc3[nH]2)ccn1` [P-3088, 6-(2-methoxy-4-pyridyl)-4-[4-[4-methyl-5-(p-tolyl)-1H-imidazol-2-yl]-1-piperidyl]-7H-pyrrolo[2,3-d]pyrimidine], the IC50 is reported as 0.0001 to 1 µM. Compound `COc1ccc(-c2[nH]c(C3(C)CCN(c4ncnc5[nH]c(-c6ccc(C#N)nc6)cc45)CC3)nc2C)cc1C` [P-3250, 5-[4-[4-[5-(4-methoxy-3-methyl-phenyl)-4-methyl-1H-imidazol-2-yl]-4-methyl-1-piperidyl]-7H-pyrrolo[2,3-d]pyrimidin-6-yl]pyridine-2-carbonitrile] has an IC50 of 0.0001 to 1 µM. Work on `CCOc1ccc(-c2[nH]c(C3(C)CCN(c4ncnc5[nH]c(-c6ccc(C#N)nc6)cc45)CC3)nc2C)cc1` [P-3251, 5-[4-[4-[5-(4-ethoxyphenyl)-4-methyl-1H-imidazol-2-yl]-4-methyl-1-piperidyl]-7H-pyrrolo[2,3-d]pyrimidin-6-yl]pyridine-2-carbonitrile] yielded an IC50 of 0.0001 to 1 µM. `Cc1nc(C2(C)CCN(c3ncnc4[nH]c(-c5ccc(NS(C)(=O)=O)cc5)cc34)CC2)[nH]c1-c1ccc(C(F)F)cc1` [P-3252, N-[4-[4-[4-[5-[4-(difluoromethyl)phenyl]-4-methyl-1H-imidazol-2-yl]-4-methyl-1-piperidyl]-7H-pyrrolo[2,3-d]pyrimidin-6-yl]phenyl]methanesulfonamide] gave an IC50 of 0.0001 to 1 µM. `Cc1nc(C2(C)CCN(c3ncnc4[nH]c(-c5ccc(C(N)=O)cc5)cc34)CC2)[nH]c1-c1ccc(OC(F)F)cc1` [P-3253, 4-[4-[4-[5-[4-(difluoromethoxy)phenyl]-4-methyl-1H-imidazol-2-yl]-4-methyl-1-piperidyl]-7H-pyrrolo[2,3-d]pyrimidin-6-yl]benzamide] was tested, and the IC50 was 0.0001 to 1 µM. For `Cc1nc(C2(C)CCN(c3ncnc4[nH]c(-c5ccc(NS(C)(=O)=O)cc5)cc34)CC2)[nH]c1-c1ccc(OC(F)F)cc1` [P-3254, N-[4-[4-[4-[5-[4-(difluoromethoxy)phenyl]-4-methyl-1H-imidazol-2-yl]-4-methyl-1-piperidyl]-7H-pyrrolo[2,3-d]pyrimidin-6-yl]phenyl]methanesulfonamide], the IC50 was 0.0001 to 1 µM. `Cc1nc(C2(C)CCN(c3ncnc4[nH]c(-c5ccc(C#N)nc5)cc34)CC2)[nH]c1-c1cccc(OC(F)F)c1` [P-3255, 5-[4-[4-[5-[3-(difluoromethoxy)phenyl]-4-methyl-1H-imidazol-2-yl]-4-methyl-1-piperidyl]-7H-pyrrolo[2,3-d]pyrimidin-6-yl]pyridine-2-carbonitrile] showed an IC50 of 1 to 10 µM. `COc1cccc(-c2[nH]c(C3(C)CCN(c4ncnc5[nH]c(-c6ccc(C#N)nc6)cc45)CC3)nc2C)c1` [P-3256, 5-[4-[4-[5-(3-methoxyphenyl)-4-methyl-1H-imidazol-2-yl]-4-methyl-1-piperidyl]-7H-pyrrolo[2,3-d]pyrimidin-6-yl]pyridine-2-carbonitrile] gave an IC50 of 0.0001 to 1 µM.
